Laboratory results published in patent US20050202513A1.
Entries after “also recorded” stand apart in the source; their conditions may differ. Counter-ions that a name gives are not always drawn. Each block holds one molecule with its values, some of them ahead of it.

What was measured:
[1] = system: cancer patient; assay: Echocardiogram analysis, ejection fraction of the heart; assay type: in vivo, human; conditions: cancer patient administered with adriamycin, healthy volunteer not less than 60%
Protocol: By the echocardiogram analysis, the heart pump function was evaluated based on the ejection fraction (EF) of the heart as calculated by the following formula: Ejection fraction (%)={(left ventricular relaxation terminal diameter^2−left ventricular contraction terminal diameter^2)/left ventricular relaxation terminal diameter^2)×100
The ejection fraction of healthy volunteers is known to be not less than 60%.

[2] = system: cancer patient; assay: Electrocardiogram analysis; assay type: in vivo, human; conditions: adriamycin patient
[3] = system: cancer patient; assay: Blood Troponin T level, sandwich ELISA; conditions: cut-off 0.1 ng/mL
[4] = system: cancer patient; assay: Measurement of creatine kinase in blood
[5] = system: cancer patient; assay: Blood Myosin Light Chain I level, sandwich RIA; conditions: cut-off 2.5 ng/mL
[6] = system: cancer patient; assay: Blood serum human H-FABP level, sandwich ELISA (MARKIT M H-FABP kit); conditions: cut-off 6.2 ng/mL
[7] = system: cancer patient; assay: Clinical diagnosis of cardiac function; assay type: in vivo, human; conditions: cancer patient administered with daunorubicin hydrochloride; expression of generalized edema
Protocol: The second blood sampling in the Table was performed one month after the first blood sampling.

[8] = adriamycin patient, first blood sampling
[9] = adriamycin patient, second blood sampling
[10] = adriamycin patient, third blood sampling
[11] = daunorubicin hydrochloride patient, first blood sampling
[12] = daunorubicin hydrochloride patient, second blood sampling (one month after the first)

EF (ejection fraction) ([1]; first blood sampling): 53% | EF (ejection fraction) ([1]; third blood sampling (20 days after the second)): 37% | Blood concentration Troponin T [3, 8]: <0.01 ng/mL | Blood concentration Troponin T [3, 9]: 0.01 ng/mL | Blood concentration Troponin T [3, 10]: 0.41 ng/mL | Blood concentration Creatine kinase ([4]; adriamycin patient, first blood sampling, healthy 25-180 U/L (male), 20-150 U/L (female)): 37 U/L | Blood concentration Creatine kinase ([4]; adriamycin patient, second blood sampling (about 2.5 months after the first)): 36 U/L | Blood concentration Creatine kinase ([4]; adriamycin patient, third blood sampling (20 days after the second)): 33 U/L | Blood concentration Myosin Light Chain I [5, 8]: <1.0 ng/mL | Blood concentration Myosin Light Chain I [5, 9]: <1.0 ng/mL | Blood concentration Myosin Light Chain I [5, 10]: <1.0 ng/mL | Blood concentration Human H-FABP ([6]; adriamycin patient, blood serum, first blood sampling): 6.8 ng/mL | Blood concentration Human H-FABP ([6]; adriamycin patient, blood serum, second blood sampling (about 2.5 months after the first)): 9.0 ng/mL | Blood concentration Human H-FABP ([6]; adriamycin patient, blood serum, third blood sampling (20 days after the second)): 19.6 ng/mL
SMILES: COc1cccc2c1C(=O)c1c(O)c3c(c(O)c1C2=O)C[C@@](O)(C(=O)CO)C[C@@H]3O[C@H]1C[C@H](N)[C@H](O)[C@H](C)O1 [adriamycin, Doxorubicin hydrochloride]
Electrocardiogram finding ([2]; about 1 week before the third blood sampling, hydrochloride): T wave decreased; also recorded: sinus tachycardia and supraventricular extrasystole | Electrocardiogram finding ([2]; about 2 weeks before the first blood sampling): extension of QTc

Diagnosis [7]: cardiac failure | Blood concentration Troponin T [3, 11]: <0.01 ng/mL | Blood concentration Troponin T [3, 12]: <0.01 ng/mL | Blood concentration Creatine kinase ([4]; daunorubicin hydrochloride patient with cardiac failure, first blood sampling): 11 U/L | Blood concentration Creatine kinase ([4]; daunorubicin hydrochloride patient with cardiac failure, second blood sampling (one month after the first)): 7 U/L | Blood concentration Myosin Light Chain I [5, 11]: <1.0 ng/mL | Blood concentration Myosin Light Chain I [5, 12]: 1.4 ng/mL | Blood concentration Human H-FABP [6, 11]: 7.6 ng/mL | Blood concentration Human H-FABP [6, 12]: 6.9 ng/mL
SMILES: COc1cccc2c1C(=O)c1c(O)c3c(c(O)c1C2=O)C[C@@](O)(C(C)=O)C[C@@H]3O[C@H]1C[C@H](N)[C@H](O)[C@H](C)O1 [daunorubicin hydrochloride]
